Test results as given in ChEMBL document CHEMBL3603831, “Discovery of Potent 17β-Hydroxywithanolides for Castration-Resistant Prostate Cancer by High-Throughput Screening of a Natural Products Library for Androgen-Induced Gene Expression Inhibitors” (J Med Chem, 2015).
Activity calls are given as the source filed them. The calls are words filed in the database; no cut-off is given here.

What was measured:
[1] = tested on: PC-3; assay: Cytotoxicity against human PC3 cells assessed as inhibition of cell proliferation/survival after 72 hrs by resazurin dye reduction assay; format: functional, cell-based; settings: PC-3, 72 h
[2] = tested on: MCF7; assay: Cytotoxicity against human MCF7 cells assessed as inhibition of cell proliferation/survival after 72 hrs by resazurin dye reduction assay; format: functional, cell-based; settings: MCF7, 72 h
[3] = tested on: SF-268; assay: Cytotoxicity against human SF268 cells assessed as inhibition of cell proliferation/survival after 72 hrs by resazurin dye reduction assay; format: functional, cell-based; settings: SF-268, 72 h
[4] = tested on: LNCaP; assay: Cytotoxicity against human LNCAP cells assessed as inhibition of cell proliferation/survival after 72 hrs by resazurin dye reduction assay; format: functional, cell-based
[5] = tested on: NCI-H460; assay: Cytotoxicity against human NCI-H460 cells assessed as inhibition of cell proliferation/survival after 72 hrs by resazurin dye reduction assay; format: functional, cell-based; settings: NCI-H460, 72 h
[6] = tested on: PC-3; assay: Antitumor activity against human PC3 cells xenografted in SCID mouse assessed as tumor growth inhibition at 12 mg/kg, iv administered for five times per week up to two weeks measured twice per week; format: functional, organism-based
[7] = tested on: HFF; assay: Cytotoxicity against HFF assessed as inhibition of cell proliferation/survival after 72 hrs by resazurin dye reduction assay; format: cell-based; settings: Homo sapiens
[8] = biological target: T1, Androgen receptor (Homo sapiens) (UniProt P10275); assay: Competitive inhibition of androgen binding to androgen receptor (unknown origin) by invitrogen polar screen assay
T1 sequence (whole entry): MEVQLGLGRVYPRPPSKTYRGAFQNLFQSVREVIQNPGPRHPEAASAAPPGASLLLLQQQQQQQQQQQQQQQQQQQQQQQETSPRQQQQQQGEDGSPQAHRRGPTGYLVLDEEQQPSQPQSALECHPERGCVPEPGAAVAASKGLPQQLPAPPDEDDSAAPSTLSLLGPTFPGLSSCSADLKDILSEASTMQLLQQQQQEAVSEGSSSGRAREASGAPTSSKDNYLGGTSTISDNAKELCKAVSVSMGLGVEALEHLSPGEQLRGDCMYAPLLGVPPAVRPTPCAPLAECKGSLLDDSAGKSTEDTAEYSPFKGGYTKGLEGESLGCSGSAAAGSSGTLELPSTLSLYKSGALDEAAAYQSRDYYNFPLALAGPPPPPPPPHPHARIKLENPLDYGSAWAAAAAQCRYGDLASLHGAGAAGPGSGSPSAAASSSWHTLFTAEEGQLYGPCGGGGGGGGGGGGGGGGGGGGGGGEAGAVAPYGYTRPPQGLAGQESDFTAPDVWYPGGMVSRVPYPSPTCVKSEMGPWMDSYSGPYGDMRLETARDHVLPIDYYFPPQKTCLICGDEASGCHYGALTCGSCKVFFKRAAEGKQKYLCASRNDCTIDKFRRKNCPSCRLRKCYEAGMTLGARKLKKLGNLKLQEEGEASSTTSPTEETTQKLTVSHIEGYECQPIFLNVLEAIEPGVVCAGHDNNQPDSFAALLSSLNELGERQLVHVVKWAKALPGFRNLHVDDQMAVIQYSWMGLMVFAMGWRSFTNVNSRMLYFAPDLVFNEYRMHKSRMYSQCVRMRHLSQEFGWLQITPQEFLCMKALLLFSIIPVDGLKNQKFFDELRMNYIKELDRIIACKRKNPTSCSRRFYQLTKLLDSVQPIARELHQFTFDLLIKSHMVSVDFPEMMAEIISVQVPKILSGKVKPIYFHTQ

[9] = biological target: T2, Androgen receptor (Homo sapiens, UniProt P10275); assay: Inhibition of androgen receptor in human LNCAP cells assessed as inhibition of DHT-induced KLK2 gene expression by Array Plate assay; format: cell-based
T2 sequence (P10275 whole entry): T1 sequence (whole entry)

[10] = biological target: T2, Androgen receptor; assay: Inhibition of androgen receptor in human LNCAP cells assessed as inhibition of DHT-induced KLK3 gene expression by Array Plate assay; format: cell-based
[11] = Toxicity in SCID mouse assessed as change in body weight measured every 3 to 5 days up to 18 days; format: organism-based; settings: in vivo
[12] = biological target: T2, Androgen receptor; assay: Inhibition of androgen receptor in human LNCAP cells assessed as inhibition of DHT-induced SPDEF gene expression by Array Plate assay; format: cell-based
[13] = tested on: PC-3; assay: Antitumor activity against human PC3 cells xenografted in SCID mouse assessed as tumor growth inhibition at 50 mg/kg, ip qd administered for 5 days followed by 2 days rest and again dose repetition up to 30 days measured after day 30 post dose relative to vehicle-treated control; format: functional; settings: PC-3, ip, read-out: TGI
[14] = tested on: Mus musculus; assay: Toxicity in SCID mouse xenografted with human LNCAP cells assessed as mortality at 15 to 25 mg/kg, sc administered in trappsol for five times per week up to two weeks; format: organism-based; settings: in vivo
[15] = Tmax in SCID mouse at 50 mg/kg, ip; format: ADME, organism-based; settings: in vivo
[16] = tested on: LNCaP; assay: Antitumor activity against human LNCAP cells xenografted in sc dosed SCID mouse assessed as tumor growth inhibition administered in trappsol for five times per week up to two weeks measured twice per week; format: functional, organism-based
[17] = tested on: Mus musculus; assay: Toxicity in SCID mouse xenografted with human PC3 cells assessed as mortality at 26 to 40 mg/kg, ip for five times per week up to two weeks; format: organism-based, PC-3; settings: in vivo
[18] = Toxicity in sc dosed SCID mouse administered in trappsol once per day for 5 days followed by 2 days of rest and again dose repetition; format: organism-based; settings: in vivo
[19] = tested on: LNCaP; assay: Antitumor activity against human LNCAP cells xenografted in SCID mouse assessed as tumor growth inhibition at 15 to 25 mg/kg, sc coadministered with taxotere in trappsol for five times per week up to two weeks measured twice per week; format: functional, organism-based
[20] = tested on: PC-3; assay: Antitumor activity against human PC3 cells xenografted in ip dosed SCID mouse assessed as tumor growth inhibition for five times per week up to two weeks measured twice per week; format: functional, organism-based
[21] = tested on: PC-3; assay: Antitumor activity against human PC3 cells xenografted in SCID mouse assessed as tumor growth inhibition at 26 to 40 mg/kg, ip coadministered with taxotere for five times per week up to two weeks measured twice per week; format: functional, organism-based
[22] = tested on: Plasma; assay: Drug uptake in SCID mouse plasma at 50 mg/kg administered through gastric gavage; format: ADME, organism-based; settings: in vivo, po
[23] = tested on: Plasma; assay: Drug uptake in SCID mouse plasma at 50 mg/kg, ip; format: ADME, organism-based; settings: in vivo
[24] = tested on: Serum; assay: Drug uptake in SCID mouse serum at 25 mg/kg, sc administered in trappsol measured after 1 hr; format: ADME, organism-based; settings: in vivo

CC(=O)OC[C@]12CC[C@H]3[C@@H](CC=C4CC=CC(=O)[C@@]43C)[C@]1(O)[C@@H](OC(C)=O)C[C@@]2(O)[C@@](C)(O)[C@H]1CC(CO)=C(C)C(=O)O1
IC50 [1]: > 5000 nM | IC50 [2]: > 5000 nM | IC50 [3]: > 5000 nM | IC50 [4]: 3300 nM | IC50 [5]: > 5000 nM

CC(=O)O[C@@]12CO[C@@H]1C[C@H](O)[C@@]1(C)C(=O)[C@H](O)C3=C(C)[C@@H](OC(=O)[C@H](O)[C@@H](NC(=O)OC(C)(C)C)c4ccccc4)C[C@@](O)([C@@H](OC(=O)c4ccccc4)[C@H]21)C3(C)C
TGI [6]: Active

CC(=O)OC[C@]12CC[C@H]3[C@@H](C[C@@H]4O[C@@]45CC=CC(=O)[C@]35C)[C@]1(O)CC[C@@]2(O)[C@@](C)(O)[C@H]1CC(C)=C(C)C(=O)O1
IC50 [7]: > 12000 nM | IC50 [1]: 1200 nM | IC50 [2]: 1200 nM | IC50 [3]: > 5000 nM | IC50 [4]: 320 nM | IC50 [5]: 2100 nM

CC(=O)OC[C@]12CC[C@H]3[C@@H](CC=C4CC=CC(=O)[C@@]43C)[C@]1(O)CC[C@@]2(O)[C@@](C)(O)[C@H]1CC(C)=C(C)C(=O)O1
inhibition [8]: inactive | IC50 [9]: 580 nM | IC50 [10]: 750 nM | IC50 [7]: > 3100 nM | MTD at 18 days [11]: 50 mg/kg | IC50 [1]: 130 nM | IC50 [12]: 770 nM | IC50 [2]: 1900 nM | IC50 [3]: 3400 nM | inhibition in vivo at 50 mg/kg [13]: 66% | IC50 [4]: 70 nM | IC50 [5]: 1200 nM

COc1cccc2c1C(=O)c1c(O)c3c(c(O)c1C2=O)C[C@@](O)(C(=O)CO)C[C@@H]3O[C@H]1C[C@H](N)[C@H](O)[C@H](C)O1 [DOXORUBICIN]
IC50 [1]: 250 nM | IC50 [2]: 320 nM | IC50 [3]: 450 nM

CC(=O)OC[C@]12CC[C@H]3[C@@H](CC=C4C=CCC(=O)[C@@]43C)[C@]1(O)[C@@H](OC(C)=O)C[C@@]2(O)[C@@](C)(O)[C@H]1CC(C)=C(C)C(=O)O1
IC50 [9]: 620 nM | IC50 [10]: 1420 nM | IC50 [7]: > 5000 nM | IC50 [1]: > 5000 nM | IC50 [12]: 1200 nM | IC50 [2]: > 5000 nM | IC50 [3]: > 5000 nM | IC50 [4]: 2000 nM | IC50 [5]: > 5000 nM

CC1=C(CO)C(=O)O[C@@H]([C@@H](C)[C@H]2CC[C@H]3[C@@H]4C[C@H]5O[C@]56[C@@H](O)C=CC(=O)[C@]6(C)[C@H]4CC[C@]23C)C1 [WITHAFERIN A]
IC50 [7]: > 6800 nM | IC50 [1]: 410 nM | IC50 [2]: 570 nM | IC50 [3]: < 400 nM | IC50 [4]: 870 nM | IC50 [5]: < 400 nM

CC(=O)OC[C@]12CC[C@H]3[C@@H](CC=C4C=CCC(=O)[C@@]43C)[C@]1(O)CC[C@@]2(O)[C@@](C)(O)[C@H]1CC(C)=C(C)C(=O)O1
IC50 [9]: 2400 nM | IC50 [10]: 3520 nM | IC50 [7]: > 3100 nM | IC50 [1]: 3100 nM | IC50 [12]: 3280 nM | IC50 [2]: > 5000 nM | IC50 [3]: > 5000 nM | IC50 [4]: 1100 nM | IC50 [5]: 3900 nM

CC(=O)OC[C@]12CC[C@H]3[C@@H](CC=C4CC=CC(=O)[C@@]43C)[C@]1(O)[C@@H](OC(C)=O)C[C@@]2(O)[C@@](C)(O)[C@H]1CC(C)=C(C)C(=O)O1
IC50 [9]: 1790 nM | IC50 [10]: 3580 nM | IC50 [7]: > 2800 nM | IC50 [1]: 2000 nM | IC50 [12]: 2720 nM | IC50 [2]: > 5000 nM | IC50 [3]: > 5000 nM | IC50 [4]: 440 nM | IC50 [5]: 2000 nM

CC(=O)OC[C@]12CC[C@H]3[C@@H](C[C@H]4O[C@]45CC=CC(=O)[C@]35C)[C@]1(O)CC[C@@]2(O)[C@@](C)(O)[C@H]1CC(C)=C(C)C(=O)O1
Activity [14]: Non-toxic | Tmax [15]: 15 min | TGI [16]: Dose-dependent effect | Activity [17]: Non-toxic | IC50 [7]: > 3100 nM | IC50 [1]: 90 nM | MTD [18]: 25 mg/kg | TGI [19]: Active | IC50 [2]: 210 nM | IC50 [3]: 2600 nM | TGI [20]: Dose-dependent effect | TGI [21]: Active | Drug uptake [22]: Not Active | IC50 [4]: 20 nM | IC50 [5]: 800 nM | Drug uptake [23]: Active | Drug uptake [24]: Active
